Measured values taken from patent US11123337B2, “4-methylsulfonyl-substituted piperidine urea compounds” (MYOKARDIA, INC., priority 2015, dated 2021).

Target: bovine cardiac myosin (Bos taurus, UniProt Q9BE39)
Test: Myosin activation assay (PK/LDH-coupled ATPase, bovine cardiac myofibrils)
Type: biochemical
Settings: AC20 = concentration at which total response is increased by twenty percent
How it was run: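 Skinned bovine cardiac myofibrils (1 mg/mL) in PIPES/MgCl2 buffer pH 6.8 at free Ca2+ giving ~50% (pCa ~6) or <5% (pCa 10) activation, with 50 μM ATP and 3.3% DMSO. ATPase rate from NADH absorbance at 340 nm (PK/LDH coupling) over 15 min at ambient temperature. AC20/AC50 from a four-parameter fit of DMSO-normalised rates.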

Sequence of bovine cardiac myosin (Q9BE39 whole entry): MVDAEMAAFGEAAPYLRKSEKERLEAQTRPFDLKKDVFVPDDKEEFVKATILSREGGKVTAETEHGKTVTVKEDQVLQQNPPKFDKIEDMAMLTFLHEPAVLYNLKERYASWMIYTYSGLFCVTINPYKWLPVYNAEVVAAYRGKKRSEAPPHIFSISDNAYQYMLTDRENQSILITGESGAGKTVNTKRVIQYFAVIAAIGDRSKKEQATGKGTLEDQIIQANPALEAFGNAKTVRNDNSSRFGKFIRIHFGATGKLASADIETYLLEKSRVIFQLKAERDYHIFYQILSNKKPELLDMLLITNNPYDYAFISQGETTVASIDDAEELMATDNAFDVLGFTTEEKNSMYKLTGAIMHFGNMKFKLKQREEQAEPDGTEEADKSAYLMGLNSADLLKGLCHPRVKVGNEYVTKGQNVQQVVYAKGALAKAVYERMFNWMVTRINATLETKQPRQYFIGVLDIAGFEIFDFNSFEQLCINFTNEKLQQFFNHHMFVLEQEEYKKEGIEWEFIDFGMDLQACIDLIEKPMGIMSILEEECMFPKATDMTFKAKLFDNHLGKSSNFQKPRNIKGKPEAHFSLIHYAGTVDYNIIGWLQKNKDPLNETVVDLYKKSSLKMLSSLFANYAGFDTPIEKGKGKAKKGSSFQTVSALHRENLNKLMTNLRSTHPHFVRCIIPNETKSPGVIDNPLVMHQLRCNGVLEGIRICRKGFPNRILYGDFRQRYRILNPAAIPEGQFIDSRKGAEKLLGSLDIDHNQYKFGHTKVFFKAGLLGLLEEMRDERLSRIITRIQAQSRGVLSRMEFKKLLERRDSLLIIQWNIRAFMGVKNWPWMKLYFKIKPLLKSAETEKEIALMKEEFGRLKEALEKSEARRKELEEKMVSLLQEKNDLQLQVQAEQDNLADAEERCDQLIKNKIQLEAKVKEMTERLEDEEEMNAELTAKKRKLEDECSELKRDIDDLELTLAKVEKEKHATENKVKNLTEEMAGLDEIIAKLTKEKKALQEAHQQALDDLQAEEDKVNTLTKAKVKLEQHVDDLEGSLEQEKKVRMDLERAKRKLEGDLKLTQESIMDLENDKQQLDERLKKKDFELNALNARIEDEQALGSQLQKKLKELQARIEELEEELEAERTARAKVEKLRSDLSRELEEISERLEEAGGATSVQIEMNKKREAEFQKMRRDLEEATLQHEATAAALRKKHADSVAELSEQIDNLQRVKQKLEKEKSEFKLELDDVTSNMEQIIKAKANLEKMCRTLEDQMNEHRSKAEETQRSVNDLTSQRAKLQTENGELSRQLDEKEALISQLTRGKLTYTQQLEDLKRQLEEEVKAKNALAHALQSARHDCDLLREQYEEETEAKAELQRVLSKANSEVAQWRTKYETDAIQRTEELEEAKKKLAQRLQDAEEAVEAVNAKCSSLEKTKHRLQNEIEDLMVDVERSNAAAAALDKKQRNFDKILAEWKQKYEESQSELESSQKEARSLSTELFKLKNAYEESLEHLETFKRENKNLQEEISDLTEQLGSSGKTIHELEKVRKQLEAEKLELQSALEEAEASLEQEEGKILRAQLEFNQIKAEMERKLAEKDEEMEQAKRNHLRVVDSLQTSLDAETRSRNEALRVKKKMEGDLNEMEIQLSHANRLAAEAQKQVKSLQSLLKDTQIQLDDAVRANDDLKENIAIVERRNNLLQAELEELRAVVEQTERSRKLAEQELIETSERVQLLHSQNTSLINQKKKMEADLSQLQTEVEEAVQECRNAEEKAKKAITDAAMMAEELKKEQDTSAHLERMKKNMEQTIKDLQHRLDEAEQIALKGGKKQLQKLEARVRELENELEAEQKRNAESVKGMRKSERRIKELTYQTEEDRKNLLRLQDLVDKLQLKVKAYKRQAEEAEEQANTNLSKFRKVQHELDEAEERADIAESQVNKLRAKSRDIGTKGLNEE
Sequence of bovine cardiac myosin (P85100 whole entry partner): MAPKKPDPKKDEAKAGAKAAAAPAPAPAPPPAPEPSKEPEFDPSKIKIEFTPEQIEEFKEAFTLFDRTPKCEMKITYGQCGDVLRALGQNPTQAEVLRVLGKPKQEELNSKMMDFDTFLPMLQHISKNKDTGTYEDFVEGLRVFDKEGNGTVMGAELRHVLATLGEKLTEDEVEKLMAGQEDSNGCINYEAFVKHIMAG
Sequence of bovine cardiac myosin (Q3SZE5 whole entry partner): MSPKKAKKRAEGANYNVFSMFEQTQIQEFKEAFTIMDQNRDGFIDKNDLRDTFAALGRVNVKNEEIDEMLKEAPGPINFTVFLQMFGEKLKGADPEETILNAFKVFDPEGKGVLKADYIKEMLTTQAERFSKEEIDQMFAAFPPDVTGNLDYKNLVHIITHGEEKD

| Compound | Myosin Activation (AC20) |
| --- | --- |
| Cn1nc(C(F)(F)F)cc1S(=O)(=O)C(C)(F)C1CCN(C(=O)Nc2ccnc(F)c2)CC1 (centres unmarked) [Compound 251, 4-(1-fluoro-1-((1-methyl-3-(trifluoromethyl)-1H-pyrazol-5-yl)sulfonyl)ethyl)-N-(2-fluoropyridin-4-yl)piperidine-1-carboxamide] | ++ (++ represents myosin activation value AC20 from 2 μM-5 μM) |
| Cn1nccc1S(=O)(=O)C(C)(F)C1CCN(C(=O)Nc2ccc(F)nc2)CC1 (centres unmarked) [Compound 228, 4-(1-fluoro-1-((1-methyl-1H-pyrazol-5-yl)sulfonyl)ethyl)-N-(6-fluoropyridin-3-yl)piperidine-1-carboxamide] | ++ (++ represents myosin activation value AC20 from 2 μM-5 μM) |
| C[C@@](F)(C1CCN(C(=O)Nc2ccon2)CC1)S(=O)(=O)c1ccc(OC(F)F)nc1 [Compound 311, (S)-4-(1-((6-(difluoromethoxy)pyridin-3-yl)sulfonyl)-1-fluoroethyl)-N-(isoxazol-3-yl)piperidine-1-carboxamide] | + (+ represents myosin activation value AC20 > 5 μM) |
| O=C(Nc1ccnnc1)N1CCC(C(F)(F)S(=O)(=O)c2ccc(C(F)(F)F)c(F)c2)CC1 [Compound 69, 4-(difluoro((3-fluoro-4-(trifluoromethyl)phenyl)sulfonyl)methyl)-N-(pyridazin-4-yl)piperidine-1-carboxamide] | ++ (++ represents myosin activation value AC20 from 2 μM-5 μM) |
| Cn1cc(S(=O)(=O)C(C)(F)C2CCN(C(=O)Nc3ccon3)CC2)c(C(F)(F)F)n1 (centres unmarked) [Compound 16, 4-(1-Fluoro-1-((1-methyl-3-(trifluoromethyl)-1H-pyrazol-4-yl)sulfonyl)ethyl)-N-(isoxazol-3-yl)piperidine-1-carboxamide] | ++ (++ represents myosin activation value AC20 from 2 μM-5 μM) |
| C[C@@](F)(C1CCN(C(=O)Nc2ccon2)CC1)S(=O)(=O)c1ccc(C(F)(F)F)nc1 [Compound 309, (S)-4-(1-fluoro-1-((6-(trifluoromethyl)pyridin-3-yl)sulfonyl)ethyl)-N-(isoxazol-3-yl)piperidine-1-carboxamide] | + (+ represents myosin activation value AC20 > 5 μM) |
| CC(C)(C1CCN(C(=O)Nc2ccnnc2)CC1)S(=O)(=O)c1cc(F)cc(F)c1 [Compound 169, 4-(2-((3,5-difluorophenyl)sulfonyl)propan-2-yl)-N-(pyridazin-4-yl)piperidine-1-carboxamide] | +++ (+++ represents myosin activation value AC20 < 2 μM) |
| N#Cc1ccccc1S(=O)(=O)C(F)(F)C1CCN(C(=O)Nc2ccnnc2)CC1 [Compound 54, 4-(((2-cyanophenyl)sulfonyl)difluoromethyl)-N-(pyridazin-4-yl)piperidine-1-carboxamide] | ++ (++ represents myosin activation value AC20 from 2 μM-5 μM) |
| CC(C)(C1(O)CCN(C(=O)Nc2ccnnc2)CC1)S(=O)(=O)c1cccc(F)c1 [Compound 163, 4-(2-((3-fluorophenyl)sulfonyl)propan-2-yl)-4-hydroxy-N-(pyridazin-4-yl)piperidine-1-carboxamide] | + (+ represents myosin activation value AC20 > 5 μM) |
| Cn1cc(S(=O)(=O)C(C)(F)C2CCN(C(=O)Nc3ccnc(F)c3)CC2)c(C(F)(F)F)n1 (centres unmarked) [Compound 245, 4-(1-fluoro-1-((1-methyl-3-(trifluoromethyl)-1H-pyrazol-4-yl)sulfonyl)ethyl)-N-(2-fluoropyridin-4-yl)piperidine-1-carboxamide] | ++ (++ represents myosin activation value AC20 from 2 μM-5 μM) |
| Cn1cc(S(=O)(=O)[C@](C)(F)C2CCN(C(=O)Nc3ccnc(F)c3)CC2)c(C(F)F)n1 [Compound 231, (S)-4-(1-((3-(difluoromethyl)-1-methyl-1H-pyrazol-4-yl)sulfonyl)-1-fluoroethyl)-N-(2-fluoropyridin-4-yl)piperidine-1-carboxamide] | + (+ represents myosin activation value AC20 > 5 μM) |
| CC(C)(C1CCN(C(=O)Nc2cnccn2)CC1)S(=O)(=O)c1cccc(F)c1 [Compound 131, 4-(2-((3-fluorophenyl)sulfonyl)propan-2-yl)-N-(pyrazin-2-yl)piperidine-1-carboxamide] | + (+ represents myosin activation value AC20 > 5 μM) |
| CC(C)(C1CCN(C(=O)Nc2ccc(F)nc2)CC1)S(=O)(=O)c1cccc(F)c1 [Compound 152, 4-(2-((3-fluorophenyl)sulfonyl)propan-2-yl)-N-(6-fluoropyridin-3-yl)piperidine-1-carboxamide] | ++ (++ represents myosin activation value AC20 from 2 μM-5 μM) |
| COc1c(F)cccc1S(=O)(=O)C(F)(F)C1CCN(C(=O)Nc2ccnnc2)CC1 [Compound 61, 4-(difluoro((3-fluoro-2-methoxyphenyl)sulfonyl)methyl)-N-(pyridazin-4-yl)piperidine-1-carboxamide] | ++ (++ represents myosin activation value AC20 from 2 μM-5 μM) |
| COc1ccc(S(=O)(=O)[C@](C)(F)C2CCN(C(=O)Nc3ccon3)CC2)cn1 [Compound 307, (S)-4-(1-fluoro-1-((6-methoxypyridin-3-yl)sulfonyl)ethyl)-N-(isoxazol-3-yl)piperidine-1-carboxamide] | + (+ represents myosin activation value AC20 > 5 μM) |
| O=C(Nc1ccnnc1)N1CCC(C(F)(F)S(=O)(=O)c2ccccc2-n2cccn2)CC1 [Compound 95, 4-(((2-(1H-pyrazol-1-yl)phenyl)sulfonyl)difluoromethyl)-N-(pyridazin-4-yl)piperidine-1-carboxamide] | + (+ represents myosin activation value AC20 > 5 μM) |
| Cc1ccc(NC(=O)N2CCC([C@@](C)(F)S(=O)(=O)c3cn(C)nc3C(F)F)CC2)cn1 [Compound 258, (S)-4-(1-((3-(difluoromethyl)-1-methyl-1H-pyrazol-4-yl)sulfonyl)-1-fluoroethyl)-N-(6-methylpyridin-3-yl)piperidine-1-carboxamide] | + (+ represents myosin activation value AC20 > 5 μM) |
| COc1ccccc1S(=O)(=O)C(C)(C)C1CCN(C(=O)Nc2ccncc2)CC1 [Compound 216, 4-(2-((2-methoxyphenyl)sulfonyl)propan-2-yl)-N-(pyridin-4-yl)piperidine-1-carboxamide] | +++ (+++ represents myosin activation value AC20 < 2 μM) |
| CC(C)(C1CCN(C(=O)Nc2cncnc2)CC1)S(=O)(=O)c1cccc(F)c1 [Compound 132, 4-(2-((3-fluorophenyl)sulfonyl)propan-2-yl)-N-(pyrimidin-5-yl)piperidine-1-carboxamide] | + (+ represents myosin activation value AC20 > 5 μM) |
| Cn1cnc(S(=O)(=O)C(C)(C)C2CCN(C(=O)Nc3ccnnc3)CC2)c1 [Compound 172, 4-(2-((1-methyl-1H-imidazol-4-yl)sulfonyl)propan-2-yl)-N-(pyridazin-4-yl)piperidine-1-carboxamide] | + (+ represents myosin activation value AC20 > 5 μM) |
| CC(F)(C1CCN(C(=O)Nc2cnoc2)CC1)S(=O)(=O)c1cccc(F)c1 (centres unmarked) [Compound 235, 4-(1-fluoro-1-((3-fluorophenyl)sulfonyl)ethyl)-N-(isoxazol-4-yl)piperidine-1-carboxamide] | +++ (+++ represents myosin activation value AC20 < 2 μM) |
| N#Cc1ccc(S(=O)(=O)C2(C3CCN(C(=O)Nc4ccnnc4)CC3)CCC2)cc1 [Compound 164, 4-(1-((4-cyanophenyl)sulfonyl)cyclobutyl)-N-(pyridazin-4-yl)piperidine-1-carboxamide] | +++ (+++ represents myosin activation value AC20 < 2 μM) |
| CC(F)(C1CCN(C(=O)Nc2ccc(F)nc2)CC1)S(=O)(=O)c1cccc(C#N)c1 (centres unmarked) [Compound 241, 4-(1-((3-cyanophenyl)sulfonyl)-1-fluoroethyl)-N-(6-fluoropyridin-3-yl)piperidine-1-carboxamide] | + (+ represents myosin activation value AC20 > 5 μM) |
| Cn1cc(NC(=O)N2CCC(C(C)(C)S(=O)(=O)c3cccc(F)c3)CC2)cn1 [Compound 139, 4-(2-((3-fluorophenyl)sulfonyl)propan-2-yl)-N-(1-methyl-1H-pyrazol-4-yl)piperidine-1-carboxamide] | + (+ represents myosin activation value AC20 > 5 μM) |
| Cn1nccc1S(=O)(=O)C(F)(F)C1CCN(C(=O)Nc2ccnnc2)CC1 [Compound 94, 4-(difluoro((1-methyl-1H-pyrazol-5-yl)sulfonyl)methyl)-N-(pyridazin-4-yl)piperidine-1-carboxamide] | + (+ represents myosin activation value AC20 > 5 μM) |
| Cn1nccc1NC(=O)N1CCC(C(C)(C)S(=O)(=O)c2cccc(F)c2)CC1 [Compound 136, 4-(2-((3-fluorophenyl)sulfonyl)propan-2-yl)-N-(1-methyl-1H-pyrazol-5-yl)piperidine-1-carboxamide] | + (+ represents myosin activation value AC20 > 5 μM) |
| Cc1ccc(NC(=O)N2CCC(C(C)(F)S(=O)(=O)c3cc(C(F)(F)F)nn3C)CC2)cn1 (centres unmarked) [Compound 250, 4-(1-fluoro-1-((1-methyl-3-(trifluoromethyl)-1H-pyrazol-5-yl)sulfonyl)ethyl)-N-(6-methylpyridin-3-yl)piperidine-1-carboxamide] | ++ (++ represents myosin activation value AC20 from 2 μM-5 μM) |
| Cc1ccccc1S(=O)(=O)C1(C2CCN(C(=O)Nc3ccncc3)CC2)CC1 [Compound 202, N-(pyridin-4-yl)-4-(1-(o-tolylsulfonyl)cyclopropyl)piperidine-1-carboxamide] | +++ (+++ represents myosin activation value AC20 < 2 μM) |
| Cn1nccc1S(=O)(=O)C(C)(F)C1CCN(C(=O)Nc2cnns2)CC1 (centres unmarked) [Compound 267, 4-(1-fluoro-1-((1-methyl-1H-pyrazol-5-yl)sulfonyl)ethyl)-N-(1,2,3-thiadiazol-5-yl)piperidine-1-carboxamide] | +++ (+++ represents myosin activation value AC20 < 2 μM) |
